# Results taken from US7968606B2 (Takasago International Corporation, priority 2004, dated 2011).
# Tested on: Japanese women
# Assay: Contingent negative variation (CNV) amplitude measurement, method of Torii
# Assay type: in vivo, human
# Details: used in perfume compositions in an amount of less than 0.5% by weight, preferably 0.01% to 0.4% by weight
# Description: (CNV) according to the method of Torii [Proceedings of the 19th Japanese Symposium on Taste and Smell, 65 (1985)], which is also described in detail in U.S. Pat. No. 6,268,333.
# The contingent negative variations are small variations in cerebral potential related to psychological processes, such as attention, waiting, anticipation etc. as well as being related to changes in the state of consciousness.
# According to this method, a luminous signal is emitted approximately 2 seconds after the audible signal, and the subject must switch off the luminous signal by pressing on the button as soon as the luminous signal is recognised.
# When carrying out these experiments, a sample to be tested (perfume composition) or a reference sample (with no smell) is placed around 10 centimeters from the nose of the subject taking part in these experiments in such a way as to ensure that the compound is recognised at all times via the said subject's respiration. […]
# The contingent negative variations measured during an early period of time going from 400 msec to 1000 msec after the audible signal and the amplitude of these variations is expressed with respect to a reference sample to which a value of 100% is given. […]
# The amplitude of the contingent negative variations was determined for each woman taking part in the test during the early period going from 400 msec to 1000 msec after the audible signal.
structure (smiles),measurement,value
"COc1cc(OC)cc(OC)c1 [1,3,5-trimethoxybenzene]",sedative effect by measurement of contingent negative variations,sedative effect
